The values that follow come from PMC3608840 (Journal of biomolecular screening, 2012).

In assay [1] the target is T1, hPAP (Homo sapiens, UniProt P15309).
T1 sequence (P15309 33-386): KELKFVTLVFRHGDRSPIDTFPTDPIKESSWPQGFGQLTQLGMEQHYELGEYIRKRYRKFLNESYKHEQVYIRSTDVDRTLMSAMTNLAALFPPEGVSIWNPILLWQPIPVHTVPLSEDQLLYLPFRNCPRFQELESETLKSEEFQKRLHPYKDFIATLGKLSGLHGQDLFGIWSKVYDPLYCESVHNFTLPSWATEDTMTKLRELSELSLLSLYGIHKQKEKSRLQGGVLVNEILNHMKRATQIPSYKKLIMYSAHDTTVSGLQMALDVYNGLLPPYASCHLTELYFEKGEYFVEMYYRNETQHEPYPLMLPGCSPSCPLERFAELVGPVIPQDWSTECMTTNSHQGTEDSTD
Put plainly: Fluorogenic. Format: biochemical. The following applies: read-out: IC50 hPAP, fluorogenic assay; positive control, DiFMUP substrate.

In assay [2] the test system is transmembrane PAP. Put plainly: Cell-based calcium mobilization assay of AMP hydrolysis by transmembrane PAP. The following applies: HEK293 cells expressing hA2B + Gαq-s5 + transmembrane PAP, 1 mM AMP.
In assay [3] the test system is PAP. The following applies: cited from earlier work.
For assay [4], the target named is T2, mPAP (Mus musculus, UniProt Q8CE08).
T2 sequence (Q8CE08 32-381): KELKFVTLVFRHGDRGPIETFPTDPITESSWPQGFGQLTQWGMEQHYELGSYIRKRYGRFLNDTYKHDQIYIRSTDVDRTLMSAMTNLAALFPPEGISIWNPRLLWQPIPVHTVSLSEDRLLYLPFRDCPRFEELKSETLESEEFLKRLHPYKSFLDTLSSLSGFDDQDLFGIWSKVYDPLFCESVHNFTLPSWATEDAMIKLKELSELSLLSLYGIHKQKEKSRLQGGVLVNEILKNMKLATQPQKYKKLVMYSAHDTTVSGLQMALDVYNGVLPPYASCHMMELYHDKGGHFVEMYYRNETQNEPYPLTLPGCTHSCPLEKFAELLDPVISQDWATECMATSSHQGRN
Put plainly: Fluorogenic. The following applies: read-out: IC50 mPAP, fluorogenic assay; positive control, DiFMUP substrate. Format: biochemical.

Assay [5] deals with T3, A2B adenosine receptor (Homo sapiens, UniProt P29275).
T3 sequence (P29275 1-332): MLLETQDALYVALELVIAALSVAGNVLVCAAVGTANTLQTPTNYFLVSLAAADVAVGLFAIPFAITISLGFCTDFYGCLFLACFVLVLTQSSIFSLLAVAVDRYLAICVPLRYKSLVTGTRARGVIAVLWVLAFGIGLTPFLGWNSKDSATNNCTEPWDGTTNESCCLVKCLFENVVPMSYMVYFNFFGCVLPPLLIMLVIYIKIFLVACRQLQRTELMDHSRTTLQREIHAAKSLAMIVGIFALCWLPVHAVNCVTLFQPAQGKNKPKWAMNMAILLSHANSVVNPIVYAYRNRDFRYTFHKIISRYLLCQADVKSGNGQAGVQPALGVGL
Put plainly: A2B receptor activation by adenosine in calcium mobilization assay. The format is cell-based. The following applies: BABPA 5 μM, pCPT-cAMP 100 μM; 1 mM adenosine as ligand.

In the case of `O=P(O)(O)C(NCc1ccccc1)c1ccccc1` (stereo not drawn) [BABPA, α-Benzylaminobenzylphosphonic acid], the IC50 in assay [1] amounted to 4.97 nM; in assay [4], 20.6 nM. Also, the “Inhibition of hydrolysis of AMP to adenosine by transmembrane PAP (in words)” value in assay [2] is “dose-dependently inhibited”. In addition, in assay [3], the “Inhibition of PAP (potency in words)” value is given as “low nanomolar range”. Besides, in assay [5], the “Block of A2B receptor activation by adenosine (in words)” value is recorded as “did not block”.
